Series [1] relates to HeLa MKYP cells. The series can be described thus: Cell death measured by DAPI staining, with 1 μM FCCP/oligomycin or no toxin (no FO). It counts as cell-based. The method, then: EP-0035985, EP-0037821, EP-0038098, and EP-0038099 in the presence of 1 μM FCCP/oligomycin or with no toxin (no FO) for 6 hrs. H2O2 treatment was performed as a control for cell death as measured by DAPI staining.
EP-0035985, EP-0038461, EP-0038463, and EP-0038503 in the presence of 1 μM FCCP/oligomycin or with no toxin (no FO) for 6.5 hrs. H2O2 treatment was performed as a control for cell death as measured by DAPI staining.
EP-0035985, EP-0038504, EP-0038508, and EP-0038521 in the presence of 1 μM FCCP/oligomycin or with no toxin (no FO) for 6.5 hrs. H2O2 treatment was performed as a control for cell death as measured by DAPI staining.
EP-0035985, EP-0038461, EP-0038463, EP-0038503, EP-0038504, EP-0038508, and EP-0038521 in the presence of 1 μM FCCP/oligomycin or with no toxin (no FO) for 6.5 hrs. H2O2 treatment was performed as a control for cell death as measured by DAPI staining.

The subject of series [2] is HeLa MKYP cells. The series can be described thus: Human mitophagy assay (HeLa mKeima assay, FACS). The series is classed as cell-based. To be noted: read-out: Mitophagy induction EC50. How it is done:
Briefly, HeLa MKYP cells were plated at 10,000 cells/well in 96 well plates along with compounds at various concentrations. Following 16 hrs of incubation, cells were treated with 1 uM FCCP/oligomycin for 6 hours, then analyzed via FACS for the presence of mitochondria in lysosomes (as determined by an emissions spectrum shift from the pH-sensitive mtKeima tag).
Briefly, HeLa cells expressing a mitophagy indicator (mtKeima) protein were treated with […] of FCCP and Oligomycin followed by the specified dose of compound, then analyzed by FACS to quantify the percentage of cells undergoing mitophagy.

Read-outs that look alike come from different tables or passages of the source.

Usually EC50 stands for the midpoint of the concentration-response curve. On to `C[C@H]1CN([C@@H]2CCc3ccccc3[C@H]2Nc2ncnc3[nH]c(C(F)(F)F)cc23)CCO1` (single isomer, unassigned) [EP-0040504], for which, in the series on HeLa MKYP cells [1], the “Highest safe dose (cytotoxicity; no FO; safe means DAPI+ <20%)” value is 25.0 µM and the “Max % death with 1 μM FO” value is 2.0%. In the series with HeLa MKYP cells [2] (Homo sapiens, HeLa), the EC50 came out at 9.33 µM.

For `Fc1cccc2c1CC[C@H](N1C[C@H]3COC[C@H]3C1)[C@H]2Nc1ncnc2[nH]c(C(F)(F)F)cc12` (single isomer, unassigned) [EP-0040505], in the series with HeLa MKYP cells [1], the “Highest safe dose (cytotoxicity; no FO; safe means DAPI+ <20%)” value is 25.0 µM and the “Max % death with 1 μM FO” value worked out at 14.3%. The concentration giving a half-maximal response (EC50) in the series with HeLa MKYP cells [2] (Homo sapiens, HeLa) amounted to 13.5 µM.

Consider `C[C@H]1CN([C@@H]2CCc3ccccc3[C@H]2Nc2ncnc3[nH]c(C4CC4)cc23)CCO1` (single isomer, unassigned) [EP-0040512], for which, in the series with HeLa MKYP cells [1], the “Highest safe dose (cytotoxicity; no FO; safe means DAPI+ <20%)” value was 25.0 µM and the “Max % death with 1 μM FO” value is reported as 26.7%. The EC50 in the series on HeLa MKYP cells [2] (Homo sapiens, HeLa) is 12.1 µM.

Take `Fc1ccc2c(c1)OC[C@H](N1C[C@@H]3COC[C@H]3C1)[C@H]2Nc1ncnc2[nH]c(C(F)(F)F)cc12` (single isomer, unassigned) [EP-0040562]: in the series on HeLa MKYP cells [1], the “Highest safe dose (cytotoxicity; no FO; safe means DAPI+ <20%)” value worked out at 25.0 µM and the “Max % death with 1 μM FO” value is 7.9%. Also, the EC50 in the series with HeLa MKYP cells [2] (Homo sapiens, HeLa) came to 1.5 µM.

With `Fc1ccc2c(c1)OC[C@H](N1C[C@H]3COC[C@@H]3C1)[C@H]2Nc1ncnc2[nH]c(C(F)(F)F)cc12` (single isomer, unassigned) [EP-0040563], in the series on HeLa MKYP cells [1], the “Highest safe dose (cytotoxicity; no FO; safe means DAPI+ <20%)” value was determined as 25.0 µM and the “Max % death with 1 μM FO” value is recorded as 9.7%. Moreover, the concentration for a half-maximal effect (EC50) in the series on HeLa MKYP cells [2] was 1.05 µM.

On to `Fc1cccc2c1CC[C@H](N1C[C@H]3COC[C@H]3C1)[C@H]2Nc1ncnc2[nH]c(C3CC3)cc12` (single isomer, unassigned) [EP-0040576], for which, in the series with HeLa MKYP cells [1], the “Highest safe dose (cytotoxicity; no FO; safe means DAPI+ <20%)” value amounted to 25.0 µM and the “Max % death with 1 μM FO” value is 21.2%. In addition, the concentration for a half-maximal effect (EC50) in the series with HeLa MKYP cells [2] (Homo sapiens, HeLa) came to 2.79 µM.

For `CN1CCN([C@H]2CCc3ccccc3[C@@H]2Nc2ncnc3[nH]c(C(F)(F)F)cc23)CC1` (single isomer, unassigned) [EP-0040578], in the series with HeLa MKYP cells [1], the “Highest safe dose (cytotoxicity; no FO; safe means DAPI+ <20%)” value turned out to be 25.0 µM and the “Max % death with 1 μM FO” value was 14.4%. In the series on HeLa MKYP cells [2] (Homo sapiens, HeLa), the EC50 worked out at 3.54 µM.

Consider `CN1CCN([C@@H]2CCc3ccccc3[C@H]2Nc2ncnc3[nH]c(C(F)(F)F)cc23)CC1` (single isomer, unassigned) [EP-0040579], for which, in the series on HeLa MKYP cells [1], the “Highest safe dose (cytotoxicity; no FO; safe means DAPI+ <20%)” value stood at 25.0 µM and the “Max % death with 1 μM FO” value was determined as 20.3%. For the same molecule, the 50% effective concentration (EC50) in the series on HeLa MKYP cells [2] (Homo sapiens, HeLa) was found to be 9.02 µM.

Regarding `FC(F)(F)c1cc2c(N[C@@H]3c4ccccc4CC[C@H]3C3CCOCC3)ncnc2[nH]1` (single isomer, unassigned) [EP-0040581], in the series with HeLa MKYP cells [1], the “Highest safe dose (cytotoxicity; no FO; safe means DAPI+ <20%)” value turned out to be 25.0 µM and the “Max % death with 1 μM FO” value was 8.1%. In addition, the concentration giving a half-maximal response (EC50) in the series on HeLa MKYP cells [2] (Homo sapiens, HeLa) came out at 2.69 µM.

For the molecule `FC(F)(F)c1cc2c(N[C@H]3c4ccccc4OC[C@@H]3C3CCOCC3)ncnc2[nH]1` (single isomer, unassigned) [EP-0040699], in the series on HeLa MKYP cells [1], the “Highest safe dose (cytotoxicity; no FO; safe means DAPI+ <20%)” value was 25.0 µM and the “Max % death with 1 μM FO” value is listed as 3.7%. In addition, the concentration giving a half-maximal response (EC50) in the series on HeLa MKYP cells [2] (Homo sapiens, HeLa) was greater than 25 µM.

Regarding `Fc1ccc2c(c1)CC[C@H](N1C[C@H]3COC[C@H]3C1)[C@H]2Nc1ncnc2[nH]c(C(F)(F)F)cc12` (single isomer, unassigned) [EP-0040720], in the series with HeLa MKYP cells [1], the “Highest safe dose (cytotoxicity; no FO; safe means DAPI+ <20%)” value stood at 25.0 µM and the “Max % death with 1 μM FO” value was determined as 12.1%. Also, the concentration for a half-maximal effect (EC50) in the series with HeLa MKYP cells [2] (Homo sapiens, HeLa) amounted to 6.25 µM.

Regarding `OC1CC2(C1)CN([C@H]1COc3ccccc3[C@@H]1Nc1ncnc3[nH]c(C(F)(F)F)cc13)C2` (single isomer, unassigned) [EP-0040725], in the series with HeLa MKYP cells [1], the “Highest safe dose (cytotoxicity; no FO; safe means DAPI+ <20%)” value came to 25.0 µM and the “Max % death with 1 μM FO” value was found to be 3.4%. Moreover, the concentration giving a half-maximal response (EC50) with HeLa MKYP cells [2] (Homo sapiens, HeLa) is greater than 25 µM.

On to `Fc1ccc2c(c1)OC[C@H](N1C[C@H]3COC[C@@H]3C1)[C@H]2Nc1ncnc2[nH]c(C(F)(F)F)cc12` (single isomer, unassigned) [EP-0040747], for which, in the series with HeLa MKYP cells [1], the “Highest safe dose (cytotoxicity; no FO; safe means DAPI+ <20%)” value stood at 25.0 µM and the “Max % death with 1 μM FO” value is 5.8%. The EC50 in the series on HeLa MKYP cells [2] was greater than 25 µM.

With `Fc1ccc2c(c1)OC[C@H](N1C[C@@H]3COC[C@H]3C1)[C@H]2Nc1ncnc2[nH]c(C3CC3)cc12` (single isomer, unassigned) [EP-0040873], in the series with HeLa MKYP cells [1], the “Highest safe dose (cytotoxicity; no FO; safe means DAPI+ <20%)” value stood at 25.0 µM and the “Max % death with 1 μM FO” value stood at 4.3%. For the same molecule, the EC50 in the series with HeLa MKYP cells [2] was greater than 25 µM.

Turning to `FC(F)(F)c1cc2c(N[C@H]3c4ccccc4OC[C@@H]3C3CCCOC3)ncnc2[nH]1` (single isomer, unassigned) [EP-0041002], in the series with HeLa MKYP cells [1], the “Highest safe dose (cytotoxicity; no FO; safe means DAPI+ <20%)” value stood at 25.0 µM and the “Max % death with 1 μM FO” value is reported as 4.5%. Also, the EC50 in the series on HeLa MKYP cells [2] (Homo sapiens, HeLa) came to 6.18 µM.

Take `FC(F)(F)c1cc2c(N[C@H]3c4ccc(Br)cc4OC[C@@H]3N3CCOCC3)ncnc2[nH]1` (single isomer, unassigned) [EP-0041021]: in the series with HeLa MKYP cells [1], the “Highest safe dose (cytotoxicity; no FO; safe means DAPI+ <20%)” value is 25.0 µM and the “Max % death with 1 μM FO” value came to 13.2%. Further, the concentration for a half-maximal effect (EC50) in the series with HeLa MKYP cells [2] (Homo sapiens, HeLa) worked out at 3.38 µM.

On to `COC[C@@H]1CCN([C@H]2COc3ccccc3[C@@H]2Nc2ncnc3[nH]c(C(F)(F)F)cc23)C1` (single isomer, unassigned) [EP-0041072], for which, in the series on HeLa MKYP cells [1], the “Highest safe dose (cytotoxicity; no FO; safe means DAPI+ <20%)” value worked out at 25.0 µM and the “Max % death with 1 μM FO” value is on record as 8.0%. Moreover, the concentration giving a half-maximal response (EC50) in the series with HeLa MKYP cells [2] was greater than 25 µM.

Regarding `COC1CN([C@H]2COc3cc(F)ccc3[C@@H]2Nc2ncnc3[nH]c(C(F)(F)F)cc23)C1` (single isomer, unassigned) [EP-0041089], in the series on HeLa MKYP cells [1], the “Highest safe dose (cytotoxicity; no FO; safe means DAPI+ <20%)” value was determined as 25.0 µM and the “Max % death with 1 μM FO” value stood at 10.2%. In addition, the EC50 in the series on HeLa MKYP cells [2] (Homo sapiens, HeLa) came out at 1.97 µM.

In the case of `COC[C@H]1CCN([C@H]2COc3ccccc3[C@@H]2Nc2ncnc3[nH]c(C(F)(F)F)cc23)C1` (single isomer, unassigned) [EP-0041174], in the series on HeLa MKYP cells [1], the “Highest safe dose (cytotoxicity; no FO; safe means DAPI+ <20%)” value came to 25.0 µM and the “Max % death with 1 μM FO” value worked out at 4.6%. In the series on HeLa MKYP cells [2], the concentration for a half-maximal effect (EC50) is 15.3 µM.

`[2H]C([2H])([2H])OC1CN([C@H]2COc3ccccc3[C@@H]2Nc2ncnc3[nH]c(C(F)(F)F)cc23)C1` (single isomer, unassigned) [EP-0041248]: in the series with HeLa MKYP cells [1], the “Highest safe dose (cytotoxicity; no FO; safe means DAPI+ <20%)” value is 25.0 µM and the “Max % death with 1 μM FO” value is on record as 10.5%. In addition, in the series with HeLa MKYP cells [2] (Homo sapiens, HeLa), the EC50 worked out at 0.49 µM.

As for `CC1(O)CN([C@@H]2COc3ccccc3[C@H]2Nc2ncnc3[nH]c(C(F)(F)F)cc23)C1` (single isomer, unassigned) [EP-0041264], in the series with HeLa MKYP cells [1], the “Highest safe dose (cytotoxicity; no FO; safe means DAPI+ <20%)” value is 25.0 µM and the “Max % death with 1 μM FO” value was 2.5%. In addition, in the series with HeLa MKYP cells [2] (Homo sapiens, HeLa), the EC50 was greater than 25 µM.

Turning to `OC(C1CCOCC1)C1COc2ccccc2C1Nc1ncnc2[nH]c(C(F)(F)F)cc12` (single isomer, unassigned) [EP-0041269], in the series on HeLa MKYP cells [1], the “Highest safe dose (cytotoxicity; no FO; safe means DAPI+ <20%)” value turned out to be 25.0 µM and the “Max % death with 1 μM FO” value is 2.9%. In addition, in the series with HeLa MKYP cells [2], the EC50 was greater than 25 µM.

`OC(C1CCOCC1)C1COc2ccccc2C1Nc1ncnc2[nH]c(C(F)(F)F)cc12` (single isomer, unassigned) [EP-0041270]: in the series on HeLa MKYP cells [1], the “Highest safe dose (cytotoxicity; no FO; safe means DAPI+ <20%)” value was 25.0 µM and the “Max % death with 1 μM FO” value is 11.6%. Besides, the EC50 with HeLa MKYP cells [2] is 0.86 µM.

Values taken from patent US20240018146A1, “COMPOSITIONS AND METHODS OF USING THE SAME FOR TREATMENT OF NEURODEGENERATIVE AND MITOCHONDRIAL DISEASE” (MITOKININ, INC., priority 2020, published 2024).
